{"source": "patent US9351983B2", "about": "“Use of glycerophosphoinositols for the treatment of septic shock” (CONSIGLIO NAZIONALE DELLE RICERCHE, priority 2012, dated 2016)", "assay_type_in_all_cases": "cell-based", "key": {"[1]": {"test_system": "interleukin 1β (IL-1β) gene expression", "test": "In vitro model of human inflammation: real-time PCR of IL-1β", "conditions": "300 μM; 4 h, 14 h, 24 h, 48 h; effect mainly at 4 h and 14 h; one donor, preliminary", "experimental": "(§1) FIG. 15—Glycerophosphoinositol modulates the kinetic transcriptional profile of genes involved in the regulation of inflammatory response. Human monocytes were purified from one donor and treated according to the in vitro model of human inflammation, previously described, in absence (blue line) or in presence (red line) of 300 μM glycerophosphoinositol. In detail glycerophosphoinositol was added to cells in culture 20 minutes before LPS, IL-10 and TGF-β, that is, again after each wash. Samples were collected at time 4 h, 14 h, 24 h, 48 h; freshly isolated monocytes have been considered as control at time 0 h. Total RNA was extracted from cells by RNeasy kit (Qiagen) and reverse-transcribed to cDNA (QuantiTect Reverse Transcription kit, Qiagen). […] Each sample was measured in triplicate and data were analyzed with Pfaffl methods for comparing relative expression data. The measurement of mRNA expression was expressed as fold-increase over control (time 0 h). […]\n(§2) Total RNA was extracted with RNeasy kit (Qiagen) according to the manufacturer's instructions. Both integrity and quality of total RNA were checked by agarose gel electrophoresis and the concentration of each RNA sample was assessed spectrophotometrically. Total RNAs were reverse-transcribed to cDNA (QuantiTect Reverse Transcription kit, Qiagen) with oligo-dT and random primers, according to manufacturer's protocol. […]"}, "[2]": {"test_system": "Interleukin-1 receptor α (IL-1Rα) gene expression", "test": "In vitro model of human inflammation: real-time PCR of IL-1Rα", "conditions": "300 μM; 4 h, 14 h, 24 h, 48 h; one donor, preliminary", "experimental": "as §1, §2"}, "[3]": {"test_system": "inhibitor of kB, α (IκB-α) gene expression", "test": "In vitro model of human inflammation: real-time PCR of IκB-α", "conditions": "300 μM; 4 h, 14 h, 24 h, 48 h; one donor, preliminary", "experimental": "as §1, §2"}}}
{"smiles": "O=P(O)(OCC(O)CO)OC1C(O)C(O)C(O)C(O)C1O", "note": "(stereo not drawn) [GroPIns, glycerophosphoinositol]", "values": [{"measurement": "IL-1β mRNA expression", "setting": "[1]", "value": "hampered the expression"}, {"measurement": "IL-1Rα mRNA expression", "setting": "[2]", "value": "favoured the expression"}, {"measurement": "IκB-α mRNA expression", "setting": "[3]", "value": "affected the expression of IκB-α"}]}
